# Active and inactive are the calls of the source. No cut-off for these calls is given here.
# How the values were obtained:
# [1] = Cmax in Beagle dog at 5 mg/kg, po administered for 12 hrs by HPLC analysis; type: ADME, organism-based, Canis lupus familiaris; conditions: in vivo
# [2] = target: Adrenergic receptor alpha-1 (Rattus norvegicus) (UniProt P15823+P23944+P43140); test: Displacement of [3H]prazosin from rat brain alpha1-adrenoceptor at 10 uM incubated for 60 mins by radiometric based scintillation counter assay relative to control; type: tissue-based
# [3] = Cmax in Sprague-Dawley rat at 10 mg/kg, po administered for 12 hrs by HPLC analysis; type: ADME, organism-based; conditions: in vivo
# [4] = target: Melatonin receptor type 1A (Homo sapiens) (UniProt P48039); test: Displacement of [125I]2-iodomelatonin from human recombinant melatonin ML1 receptor at 10 uM incubated for 240 mins by radiometric based scintillation counter assay relative to control
# [5] = target: 5-hydroxytryptamine receptor 1B (Homo sapiens) (UniProt P28222); test: Displacement of [3H]GR125743 from human recombinant 5-Hydroxytryptamine 1B at 10 uM incubated for 60 mins by radiometric based scintillation counter assay relative to control
# [6] = target: Endothelin receptor type B (Sus scrofa, UniProt P35463); test: Displacement of [125I]endhothelin-3 from ETB receptor in porcine Cerebellum Membrane at 25 degC incubated for 3 hrs by radioligand competition binding assay; type: cell membranes
# Homo sapiens [7] = species: Homo sapiens; test: Inhibition of Voltage-gated Na+ channel (site 1) (unknown origin) at 10 uM by radioligand binding assay relative to control
# [8] = target: Prostacyclin receptor (Homo sapiens) (UniProt P43119); test: Displacement of [3H]iloprost from human recombinant Prostaglandin I2 receptor at 10 uM incubated for 60 mins by radiometric based scintillation counter assay relative to control
# Homo sapiens [9] = species: Homo sapiens; test: Inhibition of L-type Ca2+ channel (unknown origin) at 10 uM by radioligand binding assay relative to control
# [10] = target: D(2) dopamine receptor (Homo sapiens) (UniProt P14416); test: Displacement of [3H]methyl-spiperone from human recombinant dopamine D2 receptor at 10 uM incubated for 60 mins by radiometric based scintillation counter assay relative to control
# Endothelin-1 receptor = target: T1, Endothelin-1 receptor (Rattus norvegicus, UniProt P26684); test: Antagonist activity at ETA receptor in endothelin-1 stimulated rat MMQ cells assessed as inhibition of phosphatidylinositol hydrolysis in presence of myo-[3H] inositol by anion exchange chromatography; type: functional, cell-based
# T1 sequence (P26684 whole entry): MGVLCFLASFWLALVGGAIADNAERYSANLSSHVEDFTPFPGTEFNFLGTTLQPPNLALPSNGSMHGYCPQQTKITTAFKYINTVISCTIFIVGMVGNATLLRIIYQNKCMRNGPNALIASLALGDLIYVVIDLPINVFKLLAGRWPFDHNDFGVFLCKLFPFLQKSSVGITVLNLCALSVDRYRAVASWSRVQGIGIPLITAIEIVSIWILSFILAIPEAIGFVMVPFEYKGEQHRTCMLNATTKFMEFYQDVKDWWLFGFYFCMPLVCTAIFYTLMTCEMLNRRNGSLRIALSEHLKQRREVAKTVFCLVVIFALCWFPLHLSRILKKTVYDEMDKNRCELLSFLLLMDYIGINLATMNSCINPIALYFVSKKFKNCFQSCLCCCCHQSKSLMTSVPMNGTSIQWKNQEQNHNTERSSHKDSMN
# [11] = target: Translocator protein (Homo sapiens) (UniProt P30536); test: Displacement of [3H] PK 11195 from peripheral-type benzodiazepine (unknown origin) at 10 uM incubated for 15 mins by radiometric based scintillation counter assay relative to control
# [12] = target: Beta-2 adrenergic receptor (Homo sapiens) (UniProt P07550); test: Displacement of [3H](-)CGP 12177 from human recombinant beta2-adrenoceptor at 10 uM incubated for 120 mins by radiometric based scintillation counter assay relative to control
# [13] = target: 5-hydroxytryptamine receptor 6 (Homo sapiens) (UniProt P50406); test: Displacement of [3H]LSD from human recombinant 5-Hydroxytryptamine 6 at 10 uM incubated for 120 mins by radiometric based scintillation counter assay relative to control
# [14] = target: P2X receptor (Rattus norvegicus) (UniProt P51579+P49653+P51578+Q64663+P47824+P51577+P49654); test: Displacement of [3H]alpha,beta -MeATP from rat bladder P2X-purinergic receptor at 10 uM incubated for 120 mins by radiometric based scintillation counter assay relative to control; type: protein assay
# [15] = target: Histamine H1 receptor (Homo sapiens) (UniProt P35367); test: Displacement of [3H]pyrilamine from human recombinant central-type histamine H1 receptor at 10 uM incubated for 60 mins by radiometric based scintillation counter assay relative to control
# [16] = Volume of distribution at steady state during terminal phase in Sprague-Dawley rat at 5 mg/kg, iv administered for 12 hrs by reverse phase HPLC-UV analysis; type: ADME, organism-based; conditions: in vivo, read-out: Vbeta
# [17] = target: Kappa-type opioid receptor (Homo sapiens) (UniProt P41145); test: Displacement of [3H]U-69593 from human kappa-Opioid receptor at 10 uM incubated for 60 mins by radiometric based scintillation counter assay relative to control
# [18] = target: T2, Endothelin-1 receptor (Rattus norvegicus) (UniProt P26684); test: Antagonist activity to ETA receptor in endothelin-1 stimulated Sprague-Dawley rat aorta assessed as induction of vessel ring contraction upto 10 uM preincubated for 15 mins; type: functional, tissue-based
# T2 sequence (whole entry): T1 sequence (P26684 whole entry)
# [19] = target: 5-hydroxytryptamine receptor 2A (Homo sapiens) (UniProt P28223); test: Displacement of [3H]ketanserin from human recombinant 5-Hydroxytryptamine 2A at 10 uM incubated for 60 mins by radiometric based scintillation counter assay relative to control
# [20] = system: Glutamate receptor ionotropic NMDA (PCP site); test: Inhibition of PCP receptor (unknown origin) at 10 uM by radioligand binding assay relative to control; conditions: Homo sapiens
# [21] = target: Beta-1 adrenergic receptor (Homo sapiens) (UniProt P08588); test: Displacement of [3H](-)CGP 12177 from human recombinant beta1-adrenoceptor at 10 uM incubated for 60 mins by radiometric based scintillation counter assay relative to control
# [22] = target: Adenosine receptor A2a (Homo sapiens) (UniProt P29274); test: Displacement of [3H]CGS 21680 from human recombinant Adenosine A2A receptor at 10 uM incubated for 120 mins by radiometric based scintillation counter assay relative to control
# Homo sapiens [23] = species: Homo sapiens; test: Displacement of [3H]BRL 43694 from human recombinant 5-Hydroxytryptamine 3 at 10 uM incubated for 120 mins by radiometric based scintillation counter assay relative to control
# [24] = target: D(3) dopamine receptor (Homo sapiens) (UniProt P35462); test: Displacement of [3H]methyl-spiperone from human recombinant dopamine D3 receptor at 10 uM incubated for 60 mins by radiometric based scintillation counter assay relative to control
# [25] = target: Neurotensin receptor type 1 (Homo sapiens) (UniProt P30989); test: Displacement of [125I]Tyr3-neurotensin from human recombinant Neurotensin receptor at 10 uM incubated for 60 mins by radiometric based scintillation counter assay relative to control
# [26] = target: Neuropeptide Y receptor type 1 (Homo sapiens) (UniProt P25929); test: Displacement of [125I]peptide YY from human recombinant Y1 receptor at 10 uM incubated for 120 mins by radiometric based scintillation counter assay relative to control
# Sequence of Neuropeptide Y receptor type 1 (Homo sapiens) (P25929 whole entry): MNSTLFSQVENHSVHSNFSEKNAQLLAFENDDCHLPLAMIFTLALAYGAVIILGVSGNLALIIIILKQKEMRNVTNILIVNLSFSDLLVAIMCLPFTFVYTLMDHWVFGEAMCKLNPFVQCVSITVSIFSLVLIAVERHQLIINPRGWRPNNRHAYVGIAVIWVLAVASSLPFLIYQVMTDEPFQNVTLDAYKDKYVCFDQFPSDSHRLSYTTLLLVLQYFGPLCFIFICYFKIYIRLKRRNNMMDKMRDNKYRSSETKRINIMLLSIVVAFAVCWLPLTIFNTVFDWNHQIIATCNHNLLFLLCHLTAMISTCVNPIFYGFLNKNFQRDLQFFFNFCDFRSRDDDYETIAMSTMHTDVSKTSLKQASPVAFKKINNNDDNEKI
# Sequence of 5-hydroxytryptamine receptor 2A (Homo sapiens) (P28223 whole entry): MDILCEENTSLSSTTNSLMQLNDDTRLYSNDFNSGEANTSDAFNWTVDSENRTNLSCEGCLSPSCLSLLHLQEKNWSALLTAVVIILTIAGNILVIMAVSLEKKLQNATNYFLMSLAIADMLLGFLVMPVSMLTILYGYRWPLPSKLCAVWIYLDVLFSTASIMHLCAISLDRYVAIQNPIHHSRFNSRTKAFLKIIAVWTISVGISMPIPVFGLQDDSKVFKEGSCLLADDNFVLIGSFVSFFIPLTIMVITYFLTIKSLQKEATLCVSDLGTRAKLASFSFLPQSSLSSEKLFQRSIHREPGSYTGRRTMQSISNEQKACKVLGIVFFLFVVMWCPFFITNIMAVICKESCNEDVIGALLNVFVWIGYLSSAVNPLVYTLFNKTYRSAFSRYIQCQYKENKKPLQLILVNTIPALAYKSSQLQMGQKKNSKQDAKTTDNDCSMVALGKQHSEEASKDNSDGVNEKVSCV
# Sequence of Beta-2 adrenergic receptor (Homo sapiens) (P07550 whole entry, looked up): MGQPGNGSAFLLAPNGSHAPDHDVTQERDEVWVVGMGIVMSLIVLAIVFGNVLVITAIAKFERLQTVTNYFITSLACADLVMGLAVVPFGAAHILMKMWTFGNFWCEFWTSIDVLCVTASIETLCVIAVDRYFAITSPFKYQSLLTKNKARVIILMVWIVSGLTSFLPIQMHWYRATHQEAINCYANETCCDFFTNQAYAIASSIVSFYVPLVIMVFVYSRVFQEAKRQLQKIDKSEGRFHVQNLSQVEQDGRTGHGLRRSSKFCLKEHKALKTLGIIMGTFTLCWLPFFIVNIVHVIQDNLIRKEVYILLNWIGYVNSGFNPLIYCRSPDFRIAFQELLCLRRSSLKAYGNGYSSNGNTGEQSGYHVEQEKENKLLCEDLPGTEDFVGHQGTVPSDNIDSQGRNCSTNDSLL
# Sequence of Adenosine receptor A2a (Homo sapiens) (P29274 whole entry): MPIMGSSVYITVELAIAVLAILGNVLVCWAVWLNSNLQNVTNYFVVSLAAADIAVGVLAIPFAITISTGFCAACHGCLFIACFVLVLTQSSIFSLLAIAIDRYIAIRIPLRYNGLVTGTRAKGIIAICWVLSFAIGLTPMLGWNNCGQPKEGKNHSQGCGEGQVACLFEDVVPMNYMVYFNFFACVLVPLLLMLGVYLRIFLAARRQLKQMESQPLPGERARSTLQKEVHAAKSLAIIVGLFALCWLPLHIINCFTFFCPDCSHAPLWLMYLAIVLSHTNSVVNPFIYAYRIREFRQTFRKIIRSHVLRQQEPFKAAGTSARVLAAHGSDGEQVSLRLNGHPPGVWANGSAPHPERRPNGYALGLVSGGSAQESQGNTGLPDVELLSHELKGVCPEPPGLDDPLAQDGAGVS
# Sequence of Translocator protein (Homo sapiens) (P30536 whole entry): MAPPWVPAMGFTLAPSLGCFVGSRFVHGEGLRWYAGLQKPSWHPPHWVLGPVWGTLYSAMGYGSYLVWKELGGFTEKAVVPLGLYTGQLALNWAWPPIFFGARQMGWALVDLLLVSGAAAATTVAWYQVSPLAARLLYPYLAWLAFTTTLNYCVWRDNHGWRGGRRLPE
# Sequence of Kappa-type opioid receptor (Homo sapiens) (P41145 whole entry): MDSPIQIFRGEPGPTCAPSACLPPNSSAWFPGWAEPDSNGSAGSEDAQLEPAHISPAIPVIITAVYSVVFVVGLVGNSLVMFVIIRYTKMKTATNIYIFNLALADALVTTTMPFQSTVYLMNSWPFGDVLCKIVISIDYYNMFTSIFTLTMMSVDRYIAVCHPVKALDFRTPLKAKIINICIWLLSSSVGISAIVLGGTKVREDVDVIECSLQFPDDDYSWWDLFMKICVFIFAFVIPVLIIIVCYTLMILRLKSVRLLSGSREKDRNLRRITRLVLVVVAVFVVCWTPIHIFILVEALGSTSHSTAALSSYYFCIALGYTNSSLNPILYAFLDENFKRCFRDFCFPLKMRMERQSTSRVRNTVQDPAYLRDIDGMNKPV
# Sequence of D(3) dopamine receptor (Homo sapiens) (P35462 whole entry): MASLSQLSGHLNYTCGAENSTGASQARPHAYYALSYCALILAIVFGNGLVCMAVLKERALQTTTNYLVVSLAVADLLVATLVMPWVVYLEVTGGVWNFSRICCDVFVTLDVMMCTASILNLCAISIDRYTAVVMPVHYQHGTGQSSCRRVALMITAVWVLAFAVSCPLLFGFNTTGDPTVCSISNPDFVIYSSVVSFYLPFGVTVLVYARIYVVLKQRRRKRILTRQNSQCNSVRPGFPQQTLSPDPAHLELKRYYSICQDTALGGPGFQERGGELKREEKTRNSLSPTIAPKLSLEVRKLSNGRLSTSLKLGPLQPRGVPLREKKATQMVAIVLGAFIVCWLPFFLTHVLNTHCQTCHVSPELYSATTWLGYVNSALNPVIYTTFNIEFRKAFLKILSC
# Sequence of 5-hydroxytryptamine receptor 1B (Homo sapiens) (P28222 whole entry): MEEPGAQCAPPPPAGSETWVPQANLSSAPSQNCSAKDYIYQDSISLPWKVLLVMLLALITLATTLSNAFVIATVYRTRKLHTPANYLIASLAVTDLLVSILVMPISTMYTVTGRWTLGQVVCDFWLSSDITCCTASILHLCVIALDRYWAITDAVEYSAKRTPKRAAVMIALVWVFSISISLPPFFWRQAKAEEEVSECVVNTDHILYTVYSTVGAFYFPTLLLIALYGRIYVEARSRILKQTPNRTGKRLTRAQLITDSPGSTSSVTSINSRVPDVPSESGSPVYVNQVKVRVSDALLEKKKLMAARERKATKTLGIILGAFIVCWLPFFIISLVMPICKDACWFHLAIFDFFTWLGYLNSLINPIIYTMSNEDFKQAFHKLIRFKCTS
# Sequence of Histamine H1 receptor (Homo sapiens) (P35367 whole entry): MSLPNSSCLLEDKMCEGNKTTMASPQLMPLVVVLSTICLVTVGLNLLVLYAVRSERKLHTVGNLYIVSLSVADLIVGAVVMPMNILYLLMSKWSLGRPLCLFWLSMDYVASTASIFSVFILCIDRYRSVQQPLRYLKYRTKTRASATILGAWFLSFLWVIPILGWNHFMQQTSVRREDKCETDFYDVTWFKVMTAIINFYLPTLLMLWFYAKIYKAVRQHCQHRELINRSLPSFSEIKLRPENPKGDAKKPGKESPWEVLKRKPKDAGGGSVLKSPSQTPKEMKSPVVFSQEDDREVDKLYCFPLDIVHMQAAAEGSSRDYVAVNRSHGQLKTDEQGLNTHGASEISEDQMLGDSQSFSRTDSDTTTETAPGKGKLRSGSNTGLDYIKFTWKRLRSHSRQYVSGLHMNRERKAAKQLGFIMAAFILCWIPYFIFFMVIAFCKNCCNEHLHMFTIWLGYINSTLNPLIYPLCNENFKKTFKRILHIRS
# Sequence of Prostacyclin receptor (Homo sapiens) (P43119 whole entry): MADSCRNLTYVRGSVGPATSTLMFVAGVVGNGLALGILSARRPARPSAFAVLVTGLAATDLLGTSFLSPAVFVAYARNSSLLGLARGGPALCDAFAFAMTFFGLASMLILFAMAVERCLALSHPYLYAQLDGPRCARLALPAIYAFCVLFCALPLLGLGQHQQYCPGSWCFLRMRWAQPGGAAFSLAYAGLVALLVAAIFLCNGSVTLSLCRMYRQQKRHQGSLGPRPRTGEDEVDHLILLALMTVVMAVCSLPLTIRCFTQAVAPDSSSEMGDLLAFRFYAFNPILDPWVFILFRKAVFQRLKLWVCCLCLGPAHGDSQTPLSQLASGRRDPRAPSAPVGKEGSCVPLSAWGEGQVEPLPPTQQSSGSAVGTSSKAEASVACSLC
# Sequence of Endothelin receptor type B (P35463 whole entry): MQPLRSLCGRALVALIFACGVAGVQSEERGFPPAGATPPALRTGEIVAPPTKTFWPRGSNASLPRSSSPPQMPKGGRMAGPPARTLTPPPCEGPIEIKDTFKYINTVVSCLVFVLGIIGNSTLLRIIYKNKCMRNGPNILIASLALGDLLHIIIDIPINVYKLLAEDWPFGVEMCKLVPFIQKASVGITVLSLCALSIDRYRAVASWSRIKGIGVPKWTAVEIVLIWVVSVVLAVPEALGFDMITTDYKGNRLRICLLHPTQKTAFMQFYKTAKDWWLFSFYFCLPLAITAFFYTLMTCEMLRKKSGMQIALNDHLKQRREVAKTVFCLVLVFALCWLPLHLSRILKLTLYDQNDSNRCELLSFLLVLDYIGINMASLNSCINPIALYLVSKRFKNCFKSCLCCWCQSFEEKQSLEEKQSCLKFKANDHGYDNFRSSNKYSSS
# Sequence of Neurotensin receptor type 1 (Homo sapiens) (P30989 whole entry): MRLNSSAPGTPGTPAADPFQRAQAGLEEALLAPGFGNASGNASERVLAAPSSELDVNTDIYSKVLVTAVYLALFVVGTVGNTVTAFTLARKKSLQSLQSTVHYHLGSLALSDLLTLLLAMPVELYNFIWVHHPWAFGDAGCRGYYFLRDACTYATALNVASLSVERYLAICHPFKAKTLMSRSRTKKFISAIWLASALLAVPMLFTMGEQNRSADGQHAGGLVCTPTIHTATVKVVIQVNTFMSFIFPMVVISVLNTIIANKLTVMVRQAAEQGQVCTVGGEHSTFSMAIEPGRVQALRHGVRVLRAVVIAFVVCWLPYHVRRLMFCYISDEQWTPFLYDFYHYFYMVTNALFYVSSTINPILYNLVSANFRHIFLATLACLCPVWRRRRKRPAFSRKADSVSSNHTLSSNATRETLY
compound,measurement,setting,value
CCCCN(CCCC)C(=O)CN1[C@H](c2cc(OC)c3c(c2)OCO3)C[C@@H](C(=O)O)[C@@H]1CC(C)(C)CCC,Cmax,[1],1970 ng/mL
same,inhibition,[2],< 10%
same,Cmax,[3],1690 ng/mL
same,inhibition,[4],12%
same,inhibition,[5],< 10%
same,IC50,[6],16.7 µM
same,inhibition,Homo sapiens [7],22%
same,inhibition,[8],15%
same,inhibition,Homo sapiens [9],29%
same,inhibition,[10],< 10%
same,IC50,Endothelin-1 receptor,0.00059 µM
same,inhibition,[11],< 10%
same,inhibition,[12],< 10%
same,inhibition,[13],< 10%
same,inhibition,[14],37%
same,inhibition,[15],< 10%
same,Vd,[16],3.7 L/kg
same,inhibition,[17],28%
same,Activity,[18],inactive
same,inhibition,[19],< 10%
same,inhibition,[20],< 10%
same,inhibition,[21],< 10%
same,inhibition,[22],< 10%
same,inhibition,Homo sapiens [23],< 10%
same,inhibition,[24],< 10%
same,inhibition,[25],< 10%
same,inhibition,[26],< 10%

# — ChEMBL document CHEMBL5678795 (Eur J Pharmacol, 1999)
